According to patent US20060014644A1, “Phenylsulfonyl ureas, process for their preparation and their use as herbicides and plant growth regulators” (Hoechst Schering AgrEvo GmbH, priority 1999, published 2006):

Key:
[1] = test system: harmful plants such as Sinapis alba, Chrysanthemum segetum, Avena sativa, Stellaria media, Echinochloa crus-galli, Lolium multiflorum, Setaria spp., Abutilon …; experiment: Pre-emergence effect on weeds (greenhouse pot test, visual scoring); format: in vivo, monocotyledonous and dicotyledonous weed plants; details: application rate of 0.3 kg and less of active substance per hectar, scored visually after 3 to 4 weeks by comparison with untreated controls
Description: 1. Pre-Emergence Effect on Weeds
Seeds or rhizome pieces of monocotyledonous and dicotyledonous weed plants were placed in sandy loam soil in cardboard pots and covered with soil. The compounds according to the invention which were formulated in the form of wettable powders or emulsion concentrates were then applied to the surface of the soil cover in the form of aqueous suspensions or emulsions at an application rate of 600 to 800 l of water/ha (converted), in various dosages.
After the treatment, the pots were placed in a greenhouse and kept under good growth conditions for the weeds. After the test plants had emerged, the damage to the plants or the negative effect on the emergence was scored visually after a test period of 3 to 4 weeks by comparison with untreated controls. As shown by the test results, compounds according to the invention have good herbicidal pre-emergence activity against a broad spectrum of weed grasses and broad-leafed weeds.

[2] = test system: harmful plants such as Sinapis alba, Echinochloa crus-galli, Lolium multiflorum, Chrysanthemum segetum, Setaria spp., Abutilon theophrasti, Amaranthus …; experiment: Post-emergence effect on weeds (greenhouse pot test, visual scoring); format: in vivo, monocotyledonous and dicotyledonous weeds; details: three-leaf stage, application rate of 0.3 kg and less of active substance per hectare, scored visually after about 3 to 4 weeks by comparison with untreated controls
Procedure: 2. Post-Emergence Effect on Weeds
Seeds or rhizome pieces of monocotyledonous and dicotyledonous weeds were placed in sandy loam soil in plastic pots, covered with soil and grown in a greenhouse under good growth conditions. Three weeks after sowing, the test plants were treated at the three-leaf stage. The compounds according to the invention which were formulated as wettable powders or emulsion concentrates were sprayed, at various dosages, onto the green parts of the plants at an application rate of 600 to 800 l of water/ha (converted). After the test plants had remained in the greenhouse for about 3 to 4 weeks under ideal growth conditions, the effect of the preparations was scored visually by comparison with untreated controls. The agents according to the invention also have good herbicidal activity post-emergence against a broad spectrum of economically important Weed grasses and broad-loafed weeds.

| Structure (SMILES) | herbicidal activity against harmful plants, pre-emergence [1] | herbicidal activity against harmful plants, post-emergence [2] |
| --- | --- | --- |
| CNc1cccc(S(=O)(=O)NC(=O)Nc2nc(OC)cc(OC)n2)c1C(=O)OC [Example 1-105] | very good herbicidal activity | very good herbicidal activity |
| COC(=O)c1c(N(CC(C)C)CC(C)C)cccc1S(=O)(=O)NC(=O)Nc1nc(OC)cc(OC)n1 [Example 1-425] | very good herbicidal activity | very good herbicidal activity |
| CCN(CC)c1cccc(S(=O)(=O)NC(=O)Nc2nc(OC)cc(OC)n2)c1C(=O)OC [Example 1-417] | very good herbicidal activity | very good herbicidal activity |
| COC(=O)c1c(NC(C)C)cccc1S(=O)(=O)NC(=O)Nc1nc(C)nc(OC)n1 [Example 1-155] | very good herbicidal activity | very good herbicidal activity |
| COC(=O)c1c(N)cccc1S(=O)(=O)NC(=O)Nc1nc(OC)nc(OC)n1 [Example 1-25] | very good herbicidal activity | very good herbicidal activity |
| COC(=O)c1c(NCc2ccccc2)cccc1S(=O)(=O)NC(=O)Nc1nc(C)nc(OC)n1 [Example 1-383] | very good herbicidal activity | very good herbicidal activity |
| CCNc1cccc(S(=O)(=O)NC(=O)Nc2nc(OC)cc(OC)n2)c1C(=O)OC [Example 1-129] | very good herbicidal activity | very good herbicidal activity |
| COC(=O)c1c(NC(C)C)cccc1S(=O)(=O)[N-]C(=O)Nc1nc(OC)cc(OC)n1.[Na+] [Example 1-154] | very good herbicidal activity | very good herbicidal activity |
